Test results: US7879997B2, “Compounds for the treatment of inflammatory disorders” (Schering Corporation, priority 2005, dated 2011)

Biological target: T1, purified catalytic domain of recombinant human TACE (rhTACEc) (Homo sapiens, UniProt P78536, N452Q/S266A)
T1 construct: rhTACEc, Residue 215 to 477 with two mutation (S266A and N452Q) and a 6× His tail; 6xHis (C); made in house; host or cells: baculovirus/Hi5 insect cells
Assay: TACE kinetic assay, cleavage of internally quenched peptide substrate SPDL-3
Assay type: biochemical
Method: TACE activity is determined by a kinetic assay measuring the rate of increase in fluorescent intensity generated by TACE catalyzed cleavage of an internally quenched peptide substrate (SPDL-3). The purified catalytic domain of recombinant human TACE (rhTACEc, Residue 215 to 477 with two mutation (S266A and N452Q) and a 6× His tail) is used in the assay. It is purified from the baculovirus/Hi5 cells expression system using affinity chromatography. The substrate SPDL-3 is an internally quenched peptide (MCA-Pro-Leu-Ala-Gln-Ala-Val-Arg-Ser-Ser-Ser-Dpa-Arg-NH2), with its sequence derived from the pro-TNFα cleavage site. MCA is (7-Methoxycoumarin-4-yl)acetyl. Dpa is N-3-(2,4-Dinitrophenyl)-L-2,3-diaminopropionyl.
A 50 μl assay mixture contains 20 mM HEPES, pH 7.3, 5 mM CaCl2, 100 μM ZnCl2, 2% DMSO, 0.04% Methylcellulose, 30 μM SPDL-3, 70 pM rhTACEc and a test compound. RhTACEc is pre-incubated with the testing compound for 90 min. at 25° C. Reaction is started by addition of the substrate. The fluorescent intensity (excitation at 320 nm, emission at 405 nm) was measured every 45 seconds for 30 min. using a fluorospectrometer (GEMINI XS, Molecular Devices). Rate of enzymatic reaction is shown as Units per second. Effect of a test compound is shown as % of TACE activity in the absence of the compound.

[1] = Specific TACE inhibitory activity (Ki values)
[2] = TACE inhibitory activity, class letters

T1 sequence (P78536 215-477 S266A/N452Q): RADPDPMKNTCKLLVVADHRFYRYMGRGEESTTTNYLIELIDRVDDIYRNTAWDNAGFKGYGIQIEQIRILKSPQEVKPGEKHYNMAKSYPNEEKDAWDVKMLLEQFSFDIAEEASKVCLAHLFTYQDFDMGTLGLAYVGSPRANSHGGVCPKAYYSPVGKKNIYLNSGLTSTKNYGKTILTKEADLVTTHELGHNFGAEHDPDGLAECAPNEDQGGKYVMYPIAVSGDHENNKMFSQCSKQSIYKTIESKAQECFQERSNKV

SMILES | Ki [1] | Ki [2]
O=C(NO)[C@H]1NC(=O)[C@@H]1Cc1ccc(OCc2cc(-c3ccccc3)nc3ccccc23)cc1 [Compound C5] | 55 nM | 20 to 100 nM
CCOC(=O)[C@@]1(Cc2ccc(OCc3cc(-c4ccccc4)nc4ccccc34)cc2)CNC[C@@H]1C(=O)NO [Compound A12] | 59 nM | 20 to 100 nM
O=C1N[C@H](C(=O)NO)[C@@H]1Cc1ccc(OCc2cc(-c3ccccc3)nc3ccccc23)cc1 [Compound B8] | 11.7 nM | < 20 nM
COC(=O)C(Oc1ccc(C[C@H]2C(=O)N[C@@H]2C(=O)NO)cc1)c1cc(-c2ccccc2)nc2ccccc12 (stereo partly shown) [Compound E3] | – | 100 to 1000 nM
